From ChEMBL document CHEMBL1201862, “PubChem BioAssay data set” (2004)
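48-hour exposure; five concentrations; linearly interpolated endpoints. GI50 is the concentration that inhibits growth by half.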 Calls of active or inactive are those of the source. No stated cut-off is given here; in the data, active = GI50 up to about 1.1 µM and inactive = higher.

What was measured:
Test in all cases: NCI anticancer screen, dose series, 48 h
786-0 = tested on: 786-0
A498 = tested on: A498
A549 = tested on: A549
ACHN = tested on: ACHN
BT-549 = tested on: BT-549
CAKI-1 = tested on: CAKI-1
COLO 205 = tested on: COLO 205
DU-145 = tested on: DU-145
EKVX = tested on: EKVX
HCC 2998 = tested on: HCC 2998
HCT-116 = tested on: HCT-116
HCT-15 = tested on: HCT-15
HL-60 = tested on: HL-60
HOP-62 = tested on: HOP-62
HT-29 = tested on: HT-29
Hs-578T = tested on: Hs-578T
IGROV-1 = tested on: IGROV-1
K562 = tested on: K562
KM12 = tested on: KM12
LOX IMVI = tested on: LOX IMVI
M14 = tested on: M14
MCF7 = tested on: MCF7
MDA-MB-231 = tested on: MDA-MB-231
MDA-MB-435 = tested on: MDA-MB-435
MDA-N = tested on: MDA-N
MOLT-4 = tested on: MOLT-4
Malme-3M = tested on: Malme-3M
NCI-H226 = tested on: NCI-H226
NCI-H23 = tested on: NCI-H23
NCI-H460 = tested on: NCI-H460
NCI-H522 = tested on: NCI-H522
NCI/ADR-RES = tested on: NCI/ADR-RES
OVCAR-3 = tested on: OVCAR-3
OVCAR-5 = tested on: OVCAR-5
OVCAR-8 = tested on: OVCAR-8
PC-3 = tested on: PC-3
RPMI-8226 = tested on: RPMI-8226
SF-268 = tested on: SF-268
SF-295 = tested on: SF-295
SF-539 = tested on: SF-539
SK-MEL-28 = tested on: SK-MEL-28
SK-MEL-2 = tested on: SK-MEL-2
SK-MEL-5 = tested on: SK-MEL-5
SK-OV-3 = tested on: SK-OV-3
SN12C = tested on: SN12C
SNB-19 = tested on: SNB-19
SNB-75 = tested on: SNB-75
SR = tested on: SR
SW-620 = tested on: SW-620
T47D = tested on: T47D
TK-10 = tested on: TK-10
U-251 = tested on: U-251
UACC-257 = tested on: UACC-257
UACC-62 = tested on: UACC-62
UO-31 = tested on: UO-31
CCRF-CEM = tested on: CCRF-CEM
OVCAR-4 = tested on: OVCAR-4

CSc1nc(=O)n(CCC#N)nc1SC
GI50 (786-0): 25.3 µM (inactive)
GI50 (A498): > 100 µM (inactive)
GI50 (A549): > 100 µM (inactive)
GI50 (ACHN): 38.8 µM (inactive)
GI50 (BT-549): 23.5 µM (inactive)
GI50 (CAKI-1): > 100 µM (inactive)
GI50 (COLO 205): 19.5 µM (inactive)
GI50 (DU-145): 51.8 µM (inactive)
GI50 (EKVX): > 100 µM (inactive)
GI50 (HCC 2998): 15 µM (inactive)
GI50 (HCT-116): 16.5 µM (inactive)
GI50 (HCT-15): 21.9 µM
GI50 (HL-60): 4.19 µM (inactive)
GI50 (HOP-62): > 100 µM (inactive)
GI50 (HT-29): 51.6 µM (inactive)
GI50 (Hs-578T): 27.6 µM (inactive)
GI50 (IGROV-1): > 100 µM (inactive)
GI50 (K562): 25.6 µM (inactive)
GI50 (KM12): > 100 µM (inactive)
GI50 (LOX IMVI): 19.5 µM (inactive)
GI50 (M14): 18.7 µM (inactive)
GI50 (MCF7): 2.72 µM (inactive)
GI50 (MDA-MB-231): 19.2 µM (inactive)
GI50 (MDA-MB-435): 23.1 µM (inactive)
GI50 (MDA-N): 20.4 µM (inactive)
GI50 (MOLT-4): 23.7 µM (inactive)
GI50 (Malme-3M): 15.2 µM (inactive)
GI50 (NCI-H226): 39.3 µM (inactive)
GI50 (NCI-H23): 55.3 µM (inactive)
GI50 (NCI-H460): > 100 µM (inactive)
GI50 (NCI-H522): 25.6 µM (inactive)
GI50 (NCI/ADR-RES): > 100 µM (inactive)
GI50 (OVCAR-3): 16.1 µM (inactive)
GI50 (OVCAR-5): 41.8 µM (inactive)
GI50 (OVCAR-8): 59.6 µM (inactive)
GI50 (PC-3): 66.5 µM (inactive)
GI50 (RPMI-8226): 22.8 µM (inactive)
GI50 (SF-268): 27.9 µM (inactive)
GI50 (SF-295): > 100 µM (inactive)
GI50 (SF-539): > 100 µM (inactive)
GI50 (SK-MEL-28): 14 µM (inactive)
GI50 (SK-MEL-2): 14.5 µM (inactive)
GI50 (SK-MEL-5): 19.1 µM (inactive)
GI50 (SK-OV-3): > 100 µM (inactive)
GI50 (SN12C): 47.9 µM (inactive)
GI50 (SNB-19): > 100 µM (inactive)
GI50 (SNB-75): 51.5 µM (inactive)
GI50 (SR): 32.8 µM (inactive)
GI50 (SW-620): 21 µM (inactive)
GI50 (T47D): 24.3 µM (inactive)
GI50 (TK-10): 40.2 µM (inactive)
GI50 (U-251): > 100 µM (inactive)
GI50 (UACC-257): > 10 µM (inactive)
GI50 (UACC-62): 32.3 µM (inactive)
GI50 (UO-31): 51.8 µM (inactive)

CCNCC(O)c1ccc(N)c([N+](=O)[O-])c1 (centres undefined)
GI50 (786-0): > 100 µM (inactive)
GI50 (A498): > 100 µM (inactive)
GI50 (A549): > 100 µM (inactive)
GI50 (ACHN): > 100 µM (inactive)
GI50 (BT-549): > 100 µM (inactive)
GI50 (CAKI-1): > 100 µM (inactive)
GI50 (CCRF-CEM): > 100 µM (inactive)
GI50 (COLO 205): > 100 µM (inactive)
GI50 (DU-145): > 100 µM (inactive)
GI50 (EKVX): > 100 µM (inactive)
GI50 (HCT-116): > 100 µM (inactive)
GI50 (HCT-15): > 100 µM
GI50 (HL-60): > 100 µM (inactive)
GI50 (HOP-62): > 100 µM (inactive)
GI50 (HT-29): > 100 µM (inactive)
GI50 (Hs-578T): > 100 µM (inactive)
GI50 (IGROV-1): > 100 µM (inactive)
GI50 (K562): > 100 µM (inactive)
GI50 (LOX IMVI): > 100 µM (inactive)
GI50 (M14): > 100 µM (inactive)
GI50 (MCF7): > 100 µM (inactive)
GI50 (MDA-MB-231): > 100 µM (inactive)
GI50 (MDA-MB-435): > 100 µM (inactive)
GI50 (MDA-N): > 100 µM (inactive)
GI50 (MOLT-4): > 100 µM (inactive)
GI50 (NCI-H226): > 100 µM (inactive)
GI50 (NCI-H23): > 100 µM (inactive)
GI50 (NCI-H460): > 100 µM (inactive)
GI50 (NCI-H522): > 100 µM (inactive)
GI50 (NCI/ADR-RES): > 100 µM (inactive)
GI50 (OVCAR-3): > 100 µM (inactive)
GI50 (OVCAR-4): 21.4 µM (inactive)
GI50 (OVCAR-5): > 100 µM (inactive)
GI50 (OVCAR-8): > 100 µM (inactive)
GI50 (PC-3): > 100 µM (inactive)
GI50 (RPMI-8226): > 100 µM (inactive)
GI50 (SF-268): > 100 µM (inactive)
GI50 (SF-295): > 100 µM (inactive)
GI50 (SF-539): > 100 µM (inactive)
GI50 (SK-MEL-28): > 100 µM (inactive)
GI50 (SK-MEL-2): > 100 µM (inactive)
GI50 (SK-MEL-5): > 100 µM (inactive)
GI50 (SK-OV-3): > 100 µM (inactive)
GI50 (SN12C): > 100 µM (inactive)
GI50 (SNB-19): > 100 µM (inactive)
GI50 (SNB-75): > 100 µM (inactive)
GI50 (SR): > 100 µM (inactive)
GI50 (SW-620): > 100 µM (inactive)
GI50 (T47D): > 100 µM (inactive)
GI50 (TK-10): > 100 µM (inactive)
GI50 (U-251): > 100 µM (inactive)
GI50 (UACC-257): > 100 µM (inactive)
GI50 (UACC-62): > 100 µM (inactive)
GI50 (UO-31): > 100 µM (inactive)
